Measured values: patent US6638956B2, “Pesticidal 1-arylpyrazoles” (Rhone-Poulenc, Inc., priority 1996, dated 2003)

SMILES	melting point
CC[S+]([O-])c1c(C=NO)nn(-c2c(Cl)cc(C(F)(F)F)cc2Cl)c1N (centres unmarked) [Compound 5, 5-Amino-1-[2,6-dichloro-4-(trifluoromethyl)phenyl]-4-ethylsulfinyl-1H-pyrazole-3-carboxaldehyde oxime]	195 °C
Cc1c([S+](C)[O-])c(C=NO)nn1-c1c(Cl)cc(C(F)(F)F)cc1Cl (centres unmarked) [Compound 30, 1-[2,6-Dichloro-4-(trifluoromethyl)phenyl]-5-methyl-4-methylsulfinyl-1H-pyrazole-3-carboxaldehyde oxime]	210 to 214 °C
N=C(NO)c1nn(-c2c(Cl)cc(C(F)(F)F)cc2Cl)c(C=NO)c1SC(F)(F)F [Compound 23, 1-[2,6-Dichloro-4-(trifluoromethyl)phenyl]-N-hydroxy-5-hydroxyiminomethyl-4-trifluoromethylthio-1H-pyrazole-3-carboximidamide]	68 to 72 °C
CSc1c(C=NO)nn(-c2c(Cl)cc(C(F)(F)F)cc2Cl)c1C [Compound 29, 1-[2,6-Dichloro-4-(trifluoromethyl)phenyl]-5-methyl-4-methylthio-1H-pyrazole-3-carboxaldehyde oxime]	160 to 162.5 °C
N=C(NO)c1nn(-c2c(Cl)cc(C(F)(F)F)cc2Cl)c(N)c1S(=O)(=O)CCF [Compound 52, 5-Amino-1-[2,6-dichloro-4-(trifluoromethyl)phenyl]-N-hydroxy-4-(2-fluoroethylsulfonyl)-1H-pyrazole-3-carboximidamide]	107 to 111 °C
CONC(=N)c1nn(-c2c(Cl)cc(C(F)(F)F)cc2Cl)c(N)c1[S+](C)[O-] (centres unmarked) [Compound 49, 5-Amino-1-[2,6-dichloro-4-(trifluoromethyl)phenyl]-N-methoxy-4-methylsulfinyl-1H-pyrazole-3-carboximidamide]	140 to 145 °C
CS(=O)(=O)c1c(C=NO)nn(-c2c(Cl)cc(C(F)(F)F)cc2Cl)c1N [Compound 16, 5-Amino-1-[2,6-dichloro-4-(trifluoromethyl)phenyl]-4-methylsulfonyl-1H-pyrazole-3-carboxaldehyde oxime]	209.5 to 211 °C (dec.)
CC[S+]([O-])c1c(C(=N)NO)nn(-c2c(Cl)cc(C(F)(F)F)cc2Cl)c1N (centres unmarked) [Compound 42, 5-Amino-1-[2,6-dichloro-4-(trifluoromethyl)phenyl]-N-hydroxy-4-ethylsulfinyl-1H-pyrazole-3-carboximidamide]	186 to 189 °C
Nc1c(C(F)(F)F)c(C=NO)nn1-c1c(Cl)cc(C(F)(F)F)cc1Cl [Compound 38, 5-Amino-1-[2,6-dichloro-4-(trifluoromethyl)phenyl]-4-trifluoromethyl-1H-pyrazole-3-carboxaldehyde oxime]	136 to 146 °C
C[S+]([O-])c1c(C=NO)nn(-c2c(Cl)cc(C(F)(F)F)cc2Cl)c1N (centres unmarked) [Compound 1, 5-Amino-1-[2,6-dichloro-4-(trifluoromethyl)phenyl]-4-methylsulfinyl-1H-pyrazole-3-carboxaldehyde oxime]	219 to 221 °C (dec.)
C[S+]([O-])c1c(C=NO[Si](C)(C)C(C)(C)C)nn(-c2c(Cl)cc(C(F)(F)F)cc2Cl)c1N (centres unmarked)	150 to 154 °C
CC(=NO)c1nn(-c2c(Cl)cc(C(F)(F)F)cc2Cl)c(N)c1[S+](C)[O-] (centres unmarked) [Compound 39, 3-Acetyl-5-amino-1-[2,6-dichloro-4-(trifluoromethyl)phenyl]-4-methylsulfinyl-1H-pyrazole oxime]	68 to 71 °C
COC(=O)ON=Cc1nn(-c2c(Cl)cc(C(F)(F)F)cc2Cl)c(N)c1SC [Compound 15, 5-Amino-1-[2,6-dichloro-4-(trifluoromethyl)phenyl]-4-methylthio-1H-pyrazole-3-carboxaldehyde O-(methoxycarbonyl)oxime]	171 to 173 °C
CSc1c(C(=N)NO)nn(-c2c(Cl)cc(C(F)(F)F)cc2Cl)c1N [Compound 47, 5-Amino-1-[2,6-dichloro-4-(trifluoromethyl)phenyl]-N-hydroxy-4-methylthio-1H-pyrazole-3-carboximidamide]	207 to 208 °C
